These results are taken from patent US9629813B2, “Nanoparticle formulations with enhanced mucosal penetration” (The Johns Hopkins University, priority 2012, dated 2017).

A short description of data set [1]: Drug distribution in the vagina (Doxorubicin surface coverage on flattened tissue). Type of data set: in vivo, mouse. The settings on record: for vaginal tissue area covered: non-ambulatory (supine for 1 h). As to the method:
(§1) Female 6-8 week-old CF-1 mice were purchased from Harlan (Indianapolis, Ind.). Mice were housed in a reverse light cycle facility (12 h light/12 h dark), to enable selection of mice in a naturally cycling estrus state. The mouse vagina during the estrus phase of the estrous cycle is most similar to the human vagina. Barrier properties to nanoparticles in estrus phase mouse mucus closely mimic the barrier properties to nanoparticles in human CVM. Thus, mice in estrus phase, as determined visually by the appearance of the vaginal introitus, were used for all distribution and retention studies. Mice used for vaginal HSV-2 protection and susceptibility studies were given a subcutaneous flank injection of 2.5 mg Depo-Provera (Pharmacia & Upjohn Company, New York, N.Y.) in 100 μL phosphate-buffered saline (PBS) 7 days prior to experiments. This treatment is commonly used to increase susceptibility to vaginal HSV-2 infection. All experimental protocols were approved by the Johns Hopkins Animal Care and Use Committee.
Doxorubicin (NetQem, Durham, N.C.) was dissolved at 1 mg/ml concentration in either PBS (isoosmolar with respect to blood) or ultrapure water (hypoosmolar). For 1 liter of 1×PBS, 800 ml of distilled water; 8 g of NaCl; 0.2 g of KCl; 1.44 g of Na2HPO4; 0.24 g of KH2PO4: adjust the pH to 7.4 with HCl, add distilled water to a total volume of 1 liter.
Doxorubicin was vaginally administered both isoosmotically and hypoosmotically to mice in two different conditions. The “non-ambulatory” group was anesthetized with an intraperitoneal injection of Avertin working solution (prepared according to Johns Hopkins ACUC guidelines) and remained supine for 1 hr prior to tissue collection. […] The images were ‘thresholded’ to draw region of interest boundaries around the fluorescent signal, and then the area covered quantified using ImageJ software. An average percentage coverage was determined for each mouse, and these values were averaged over groups of n=5 mice.

Data set [2] is described as follows: Drug retention in the vagina (Doxorubicin fluorescence of whole cervicovaginal tract). Type of data set: in vivo, mouse. The settings on record: after 10 min supine; normalized to isoosmolar group. As to the method:
Female 6-8 week-old CF-1 mice were purchased from Harlan (Indianapolis, Ind.). Mice were housed in a reverse light cycle facility (12 h light/12 h dark), to enable selection of mice in a naturally cycling estrus state. The mouse vagina during the estrus phase of the estrous cycle is most similar to the human vagina. Barrier properties to nanoparticles in estrus phase mouse mucus closely mimic the barrier properties to nanoparticles in human CVM. Thus, mice in estrus phase, as determined visually by the appearance of the vaginal introitus, were used for all distribution and retention studies. […]
Doxorubicin vas dissolved at a concentration 1 mg/ml in phosphate buffeted saline (“PBS”) (isoosmolar with respect to blood) or ultrapure water (hypoosmolar). […] Fluorescence images of the tissues were obtained using the Xenogen IVIS Spectrum imaging device (Caliper Life Sciences). To account for potential differences in Doxorubicin solution fluorescence, vials of both isoosmolar and hypoosmolar Doxorubicin solutions were included in the image. The ratio of the intensity of the two solutions was used to normalize the tissue fluorescence for each group. Quantification of fluorescent counts per unit area was calculated using the Xenogen Living Image 2.5 software. […]

The nature of data set [3]: Vaginal epithelial distribution of FITC-containing biodegradable MPP versus FITC in HEC gel after 24 h. Type of data set: in vivo, mouse. The settings on record: MPP in UP water, FITC in isoosmolar HEC gel. How it is done: Biodegradable MPP containing FITC intravaginally was administered in UP water. As a comparison, FITC in the standard isoosmolar placebo gel, hydroxyethylcellulose (HEC), was administered. After 24 h, the vaginal tissue was excised and flattened between two glass slides.

For data set [4], the system named is HSV-2 strain G. The data set can be described thus: HSV-2 infection mouse model (vaginal protection). The format is in vivo. The settings on record: 10 ID50. How it is done: as §1
Mice received 20 μl of 10 mg/ml acyclovir monophosphate dissolved in either PBS (isoosmolar) or ultrapure water (hypoosmolar) immediately before use. […] Mice were dosed either 1 min or 60 min prior to viral inoculum. Mice were then challenged with 10 μl of inoculum containing HSV-2 strain G (ATCC #VR-724, 2.8×10^7 TCID50 per ml). For protection studies, HSV-2 was diluted 10-fold with Bartel's medium to deliver 10 ID50, a dose that typically infects 85-90% of control mice. For osmotic-induced susceptibility tests, virus was diluted 10-fold with Bartel's medium and further diluted 10-fold in either Bartel's medium (isoosmolar) or deionized water (hypoosmolar) to the ID50, a dose that infects half of the mice. Mice were assessed for infection three days later after inoculation by culturing a PBS vaginal lavage on human foreskin fibroblasts (Diagnostic Hybrids, MRHF Lot #440318W). In this model, input (challenge) virus is no longer detectable in lavage fluid if it is collected more than 12 h after the challenge.
The Wilcoxon rank-sum test was used to compare data sets. This test is non-parametric, and more appropriate in situations where a Gaussian distribution cannot be assumed. For HSV-2 infection studies, statistical significance was determined using Fisher's exact test, two-tailed distribution.

As for `COc1cccc2c1C(=O)c1c(O)c3c(c(O)c1C2=O)C[C@@](O)(C(=O)CO)C[C@@H]3O[C@H]1C[C@H](N)[C@H](O)[C@H](C)O1` [Doxorubicin], in data set [1] (ambulatory for 10 mins, isoosmolar (isotonic) solution), the “vaginal surface area covered” value was determined as 25%. The “vaginal tissue area covered” value in data set [1] (hypoosmolar solution (ultrapure water)) turned out to be 88%; in data set [1] (isoosmolar solution (PBS)) it was 15%. Also, the “relative fluorescent signal in reproductive tract, hypoosmolar versus isoosmolar solution” value in data set [2] is listed as “half”.
Consider FITC, for which the “epithelial distribution on flattened vaginal tissue” value in data set [3] is given as “sparsely distributed”.
In the case of acyclovir monophosphate [ACVp], the mice infected is recorded as 31% in data set [4] (1% ACVp 1 min before virus, administered hypotonically); 49% in data set [4] (1% ACVp 1 min before virus, administered isotonically); 73% in data set [4] (1% ACVp 1 h before virus, administered hypotonically); 45% in data set [4] (1% ACVp 1 h before virus, administered isotonically).
